Assay results published in ChEMBL document CHEMBL1201862, “PubChem BioAssay data set” (2004).
Counter-ions that a name gives are not always drawn. One block for each compound: values may come before it. Calls of active or inactive are those of the source.

Key:
[1] = molecular target: Benomyl/methotrexate resistance protein (Candida albicans, UniProt P28873); test: CaMdr1 efflux pump inhibitor potency, dose response, singleplex, Cherry Pick1 hits (AID 588608); format: functional
[2] = molecular target: Photoreceptor-specific nuclear receptor (Homo sapiens, UniProt Q9Y5X4); format: functional, cell-based;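 further: CHO-S cells with Gal4-NCOR and VP16-NR2E3 two-hybrid luciferase reporter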
Chain of Photoreceptor-specific nuclear receptor (Q9Y5X4 whole entry, the tested form may be a part): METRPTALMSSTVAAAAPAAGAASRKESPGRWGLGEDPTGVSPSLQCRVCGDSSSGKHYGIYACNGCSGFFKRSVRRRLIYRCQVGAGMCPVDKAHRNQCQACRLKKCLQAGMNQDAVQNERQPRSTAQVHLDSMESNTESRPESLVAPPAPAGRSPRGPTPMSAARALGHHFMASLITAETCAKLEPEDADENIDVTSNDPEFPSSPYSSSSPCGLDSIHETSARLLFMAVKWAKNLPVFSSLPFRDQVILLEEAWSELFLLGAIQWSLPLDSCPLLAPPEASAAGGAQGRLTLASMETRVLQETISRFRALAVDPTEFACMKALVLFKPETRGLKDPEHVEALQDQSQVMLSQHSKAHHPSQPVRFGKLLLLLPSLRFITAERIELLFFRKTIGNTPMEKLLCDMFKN

[3] = HEK293 cell viability, dose response, counter-screen for EBV LMP1 inhibitor project, dry powder, set 2 (AID 624374); format: functional
[4] = LMP1-driven NF-kB reporter inhibition, dose response, cell-based, luciferase reporter, luminescence, dry powder, set 2 (AID 624376); format: functional
[5] = molecular target: Scavenger receptor class B member 1 (Mus musculus, UniProt Q61009); test: inhibitors of SR-BI-mediated HDL uptake, dose response, cell-based, ldlA[mSR-BI] CHO, DiI fluorescence, dry powder, set 10 (AID 624029); format: functional
Chain of Scavenger receptor class B member 1 (Q61009 whole entry): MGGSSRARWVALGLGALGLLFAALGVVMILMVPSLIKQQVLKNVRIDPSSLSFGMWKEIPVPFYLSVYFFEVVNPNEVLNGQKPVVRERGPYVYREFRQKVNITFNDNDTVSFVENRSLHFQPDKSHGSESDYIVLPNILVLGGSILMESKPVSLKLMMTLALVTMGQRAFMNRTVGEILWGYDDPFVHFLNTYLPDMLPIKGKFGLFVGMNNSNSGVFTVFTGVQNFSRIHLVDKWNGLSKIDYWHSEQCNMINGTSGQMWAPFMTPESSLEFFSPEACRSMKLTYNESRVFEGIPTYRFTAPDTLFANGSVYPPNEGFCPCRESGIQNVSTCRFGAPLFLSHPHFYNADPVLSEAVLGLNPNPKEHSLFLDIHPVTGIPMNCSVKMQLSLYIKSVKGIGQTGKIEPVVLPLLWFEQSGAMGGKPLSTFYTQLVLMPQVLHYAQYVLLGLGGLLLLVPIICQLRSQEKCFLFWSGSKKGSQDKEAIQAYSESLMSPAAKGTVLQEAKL

INS1 = test: beta cell apoptosis inhibitors, cytokine rescue, dose response, luminescence, retest (AID 449756); format: functional, cell-based; details: Rattus norvegicus;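 further: cell death triggered by IL-1 beta plus TNF-alpha plus IFN-gamma mixture; protective hits raise ATP signal compared with cytokine alone wells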
Beta-galactosidase = Beta-galactosidase (Escherichia coli, UniProt Q8VNN2); test: Dose response counterscreen for EBI2 assay utilizing the enzyme, b-galactosidase.; format: functional
Chain of Beta-galactosidase (Q8VNN2 whole entry): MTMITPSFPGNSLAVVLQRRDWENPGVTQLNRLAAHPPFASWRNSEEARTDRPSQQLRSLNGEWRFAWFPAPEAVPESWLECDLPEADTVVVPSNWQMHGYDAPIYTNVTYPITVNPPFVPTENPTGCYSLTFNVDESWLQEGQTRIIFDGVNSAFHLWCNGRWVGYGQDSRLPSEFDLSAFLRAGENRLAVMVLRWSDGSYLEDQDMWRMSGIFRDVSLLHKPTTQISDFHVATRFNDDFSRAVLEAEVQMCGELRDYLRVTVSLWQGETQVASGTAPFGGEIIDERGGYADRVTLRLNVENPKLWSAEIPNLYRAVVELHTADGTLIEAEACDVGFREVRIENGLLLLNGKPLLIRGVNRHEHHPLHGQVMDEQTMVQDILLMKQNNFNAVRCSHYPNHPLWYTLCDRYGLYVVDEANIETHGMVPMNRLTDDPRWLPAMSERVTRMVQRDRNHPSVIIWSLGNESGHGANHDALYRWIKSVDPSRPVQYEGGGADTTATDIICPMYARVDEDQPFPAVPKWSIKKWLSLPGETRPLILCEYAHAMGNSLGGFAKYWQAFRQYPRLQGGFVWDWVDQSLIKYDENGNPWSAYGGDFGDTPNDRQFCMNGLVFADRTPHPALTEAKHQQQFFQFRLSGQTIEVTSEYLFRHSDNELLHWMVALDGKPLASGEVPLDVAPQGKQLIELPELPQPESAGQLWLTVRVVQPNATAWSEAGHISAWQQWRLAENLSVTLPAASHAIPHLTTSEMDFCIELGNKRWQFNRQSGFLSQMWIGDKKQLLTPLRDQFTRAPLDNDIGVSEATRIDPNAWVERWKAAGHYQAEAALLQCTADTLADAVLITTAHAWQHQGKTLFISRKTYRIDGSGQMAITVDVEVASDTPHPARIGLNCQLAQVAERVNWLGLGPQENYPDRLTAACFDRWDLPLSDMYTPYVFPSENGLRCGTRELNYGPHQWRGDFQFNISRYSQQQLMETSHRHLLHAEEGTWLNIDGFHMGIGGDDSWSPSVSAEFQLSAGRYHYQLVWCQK

[6] = HeLa cell cytotoxicity, dose response, cytotoxicity control for MgcRacGAP inhibitor project (AID 624300); format: functional
[7] = molecular target: T1, Rac GTPase-activating protein 1 (Homo sapiens, UniProt Q9H0H5); test: MgcRacGAP GTPase-activating activity inhibitors, confirmation, biochemical, ADP Hunter fluorescence, primary and confirmatory (AID 624330); format: functional
T1 sequence (Q9H0H5 whole entry): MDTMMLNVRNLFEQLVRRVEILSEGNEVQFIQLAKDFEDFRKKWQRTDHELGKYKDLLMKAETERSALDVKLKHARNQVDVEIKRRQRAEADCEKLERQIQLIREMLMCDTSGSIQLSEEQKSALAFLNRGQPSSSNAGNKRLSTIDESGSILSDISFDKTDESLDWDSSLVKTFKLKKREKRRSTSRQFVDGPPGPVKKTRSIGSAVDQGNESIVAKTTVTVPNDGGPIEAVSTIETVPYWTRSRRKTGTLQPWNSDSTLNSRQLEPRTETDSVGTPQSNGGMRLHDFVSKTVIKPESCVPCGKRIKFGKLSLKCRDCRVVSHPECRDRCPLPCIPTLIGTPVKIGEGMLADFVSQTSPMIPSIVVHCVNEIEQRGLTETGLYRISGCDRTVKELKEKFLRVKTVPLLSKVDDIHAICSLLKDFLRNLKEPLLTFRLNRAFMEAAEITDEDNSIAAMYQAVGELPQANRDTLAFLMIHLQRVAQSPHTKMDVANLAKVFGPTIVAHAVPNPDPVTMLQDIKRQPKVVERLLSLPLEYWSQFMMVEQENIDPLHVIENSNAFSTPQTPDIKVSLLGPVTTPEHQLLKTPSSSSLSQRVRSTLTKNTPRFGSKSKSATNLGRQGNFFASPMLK

[8] = molecular target: T2, Low molecular weight phosphotyrosine protein phosphatase (Homo sapiens, UniProt P24666); format: functional; details: read-out: IC50_Mean
T2 sequence (P24666 whole entry): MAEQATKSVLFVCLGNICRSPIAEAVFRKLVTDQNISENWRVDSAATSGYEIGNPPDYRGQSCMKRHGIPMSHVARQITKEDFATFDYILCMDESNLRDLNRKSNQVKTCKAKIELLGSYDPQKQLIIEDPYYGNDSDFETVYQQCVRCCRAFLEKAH

[9] = molecular target: T2, Low molecular weight phosphotyrosine protein phosphatase; format: functional; details: read-out: IC50_Mean; remark: listed apart in the source
[10] = molecular target: T3, Carboxy-terminal domain RNA polymerase II polypeptide A small phosphatase 1 (Homo sapiens, UniProt Q9GZU7); test: inhibitors of CTDSP1, concentration-response testing, biochemical assay, absorbance-based, actives from ultra-high-throughput screening (AID 540297); format: functional
T3 sequence (Q9GZU7 whole entry): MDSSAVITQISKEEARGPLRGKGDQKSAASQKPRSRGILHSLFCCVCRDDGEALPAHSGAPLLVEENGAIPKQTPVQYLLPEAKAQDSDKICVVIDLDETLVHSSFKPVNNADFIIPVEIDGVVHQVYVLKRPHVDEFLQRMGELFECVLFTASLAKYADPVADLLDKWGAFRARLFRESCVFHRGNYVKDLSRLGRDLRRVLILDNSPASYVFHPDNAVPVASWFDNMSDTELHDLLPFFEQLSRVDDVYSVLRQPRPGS

[11] = molecular target: T4, High affinity choline transporter 1 (Homo sapiens, UniProt Q9GZV3); test: CHT inhibitors, dose response, cell-based, 10-point CRC, membrane potential dye (AID 588401); format: functional;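 further: membrane potential dye fluorescence of choline-evoked depolarization via CHT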
T4 sequence (Q9GZV3 whole entry): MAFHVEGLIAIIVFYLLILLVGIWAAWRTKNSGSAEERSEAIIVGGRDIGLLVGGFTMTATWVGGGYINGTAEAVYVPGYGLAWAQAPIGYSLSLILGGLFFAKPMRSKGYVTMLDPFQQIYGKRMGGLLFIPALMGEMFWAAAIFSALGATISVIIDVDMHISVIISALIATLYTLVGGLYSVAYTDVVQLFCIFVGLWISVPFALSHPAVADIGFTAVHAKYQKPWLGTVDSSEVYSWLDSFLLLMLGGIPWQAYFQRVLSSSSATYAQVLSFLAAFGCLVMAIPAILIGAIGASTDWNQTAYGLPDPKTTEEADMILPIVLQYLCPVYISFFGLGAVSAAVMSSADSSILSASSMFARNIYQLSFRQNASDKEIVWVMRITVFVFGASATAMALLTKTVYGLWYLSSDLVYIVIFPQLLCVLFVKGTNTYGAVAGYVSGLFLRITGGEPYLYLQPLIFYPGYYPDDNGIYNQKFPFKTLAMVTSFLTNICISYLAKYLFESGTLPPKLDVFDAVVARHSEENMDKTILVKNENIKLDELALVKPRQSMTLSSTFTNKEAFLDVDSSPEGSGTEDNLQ

[12] = molecular target: T4, High affinity choline transporter 1; test: CHT inhibitors, dose response, cell-based, 5-point CRC, membrane potential dye (AID 504840); format: functional

Chain of Benomyl/methotrexate resistance protein (P28873 whole entry, the tested form may be a part): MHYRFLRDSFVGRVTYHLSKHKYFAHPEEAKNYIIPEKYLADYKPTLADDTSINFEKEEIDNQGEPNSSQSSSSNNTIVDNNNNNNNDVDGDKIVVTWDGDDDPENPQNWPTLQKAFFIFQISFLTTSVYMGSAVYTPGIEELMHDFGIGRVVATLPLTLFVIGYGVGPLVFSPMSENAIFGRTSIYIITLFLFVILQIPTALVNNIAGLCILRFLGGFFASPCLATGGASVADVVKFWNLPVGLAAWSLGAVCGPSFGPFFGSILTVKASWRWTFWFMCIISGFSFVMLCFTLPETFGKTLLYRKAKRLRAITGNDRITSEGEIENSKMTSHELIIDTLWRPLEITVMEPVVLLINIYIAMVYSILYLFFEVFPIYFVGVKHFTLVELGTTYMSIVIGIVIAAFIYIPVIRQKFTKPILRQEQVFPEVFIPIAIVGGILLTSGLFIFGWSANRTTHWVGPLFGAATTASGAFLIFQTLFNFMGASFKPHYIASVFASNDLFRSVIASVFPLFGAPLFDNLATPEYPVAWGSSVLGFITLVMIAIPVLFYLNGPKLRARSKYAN

Compound: Cc1ccc(C)c(C(=O)COC(=O)c2ccc(C)c(S(=O)(=O)N3CCOCC3)c2)c1
EC50 [1]: 0.704 µM (active)

Compound: CO[C@H](CN(C)S(=O)(=O)c1cccc(Cl)c1)[C@@H](C)CN([C@H](C)CO)S(=O)(=O)c1ccc(Cl)cc1
AbsAC35 [3]: 104.79 µM | AbsAC35 [4]: 36.95 µM

Compound: COc1cc(-c2nc3ccc(C)cn3c2NCc2ccccc2)ccc1-c1cccc(Cl)c1
AC50 (INS1): 5.14 µM (active) | IC50 (Beta-galactosidase): 96 µM (inactive)

Compound: N=c1c2ccccc2nnn1-c1ccc(C(F)(F)F)cc1
IC50 [8]: 12.8 µM (active) | IC50 [9]: 18.8 µM (active) | IC50 [10]: 8.01 µM (active)

Compound: CC(C)(C)NCC(O)c1cc(Cl)c(N)c(Cl)c1 (centres undefined) [CLENBUTEROL HYDROCHLORIDE]
IC50 [11]: 0.000897 µM (active) | IC50 [12]: 0.0288 µM (active)

Further lines, with some results ahead:

IC50 [2]: 1.49 µM (active)
Compound: Cc1ccc(N/C(S)=C(\C#N)c2nc3ccccc3s2)cc1

AC50 [5]: > 70 µM (inactive)
Compound: CC(C)NC(=O)Nc1ccc2c(c1)C(=O)N([C@@H](C)CO)C[C@H](C)[C@H](CN(C)S(=O)(=O)c1ccc(Cl)cc1)O2

IC50 [7]: 57.7 µM (active)
Compound: CN(c1ccc(O)cc1)c1nc(-c2ccccc2)cs1
CC50 [6]: 100 µM (active)
